Assay results taken from PubChem BioAssay (NCI).
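96-well plates; 48 h exposure; 5 concentrations. Endpoints by linear interpolation between flanking doses. Not reached: highest tested concentration assigned. The concentration for 50% growth inhibition is given as GI50. Definition used: TGI = concentration required for complete inhibition of growth.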

Key:
Test in all cases: NCI anticancer screen, dose series, 48 h
COLO 205 colon = test system: COLO 205 colon
DU-145 prostate = test system: DU-145 prostate
HCT-116 colon = test system: HCT-116 colon
HCT-15 colon = test system: HCT-15 colon
HS 578T breast = test system: HS 578T breast
HT29 colon = test system: HT29 colon
MDA-MB-231 breast = test system: MDA-MB-231 breast
NCI-H226 lung = test system: NCI-H226 lung
SF-268 CNS = test system: SF-268 CNS
SK-MEL-5 melanoma = test system: SK-MEL-5 melanoma
UACC-257 melanoma = test system: UACC-257 melanoma
SNB-75 CNS = test system: SNB-75 CNS

Structure (SMILES)	TGI (COLO 205 colon) [µM]	TGI (DU-145 prostate) [µM]	TGI (HCT-116 colon) [µM]	TGI (HCT-15 colon) [µM]	TGI (HS 578T breast) [µM]	TGI (HT29 colon) [µM]	TGI (MDA-MB-231 breast) [µM]	TGI (NCI-H226 lung) [µM]	TGI (SF-268 CNS) [µM]	TGI (SK-MEL-5 melanoma) [µM]	TGI (UACC-257 melanoma) [µM]	TGI (SNB-75 CNS) [µM]	GI50 (COLO 205 colon) [µM]	GI50 (DU-145 prostate) [µM]	GI50 (HCT-15 colon) [µM]	GI50 (HS 578T breast) [µM]	GI50 (HT29 colon) [µM]	GI50 (MDA-MB-231 breast) [µM]	GI50 (UACC-257 melanoma) [µM]
Cc1ccc(OCC2OC(n3cnc4c(N(C)C)nc(Br)nc43)CC2Oc2ccc(C)cc2)cc1 (stereo unspecified)	> 100	> 100	> 100	> 100	> 100	> 100	> 100	> 100	> 100	> 100	> 100	–	–	–	–	–	–	–	–
COc1ccc2[nH]c(Cl)c(/C=C3/C(=O)Nc4cc(C)c(OC)cc43)c2c1	5.9	29.4	15.7	12.9	20.9	15	20.6	–	19.3	6.32	23.6	23.4	–	–	–	–	–	–	–
Cc1sc2nc(-c3cc([N+](=O)[O-])c(Cl)cc3Cl)c(/C=N/N=C(N)N)n2c1C	–	39.1	> 100	> 100	82.7	9	34.6	75.2	66.1	27.1	26	–	–	–	–	–	–	–	–
COc1cc(C2SCC(=O)N2c2ccc(-n3c(-c4ccccc4)nc4ccccc4c3=O)cc2)ccc1O (stereo unspecified)	> 100	> 100	> 100	> 100	> 100	> 100	> 100	> 100	> 100	> 100	> 100	–	–	–	–	–	–	–	–
Cc1c2c(cc3c1[nH]c1ccccc13)C=NCC2	22.4	–	14.6	61.8	–	31.7	–	50.2	49.6	12.7	19.6	39.5	–	–	–	–	–	–	–
O=C(Nc1nc2c(=O)[nH]cnc2s1)c1ccccc1	> 100	> 100	> 100	> 100	> 100	> 100	–	> 100	> 100	> 100	> 100	> 100	–	–	–	–	–	–	–
O=C1CSc2nc3ccccc3n2/C=N\N1	> 100	> 100	> 100	> 100	–	> 100	> 100	> 100	> 100	> 100	> 100	–	–	–	–	–	–	–	–
O=C(Nc1c[nH]c(=O)[nH]c1=O)C(Cl)Cl	> 100	> 100	> 100	> 100	–	> 100	> 100	> 100	–	> 100	> 100	> 100	–	–	–	–	–	–	–
O=c1[nH]nc(-c2ccccc2)n1/N=C/c1c[nH]c2ccccc12	> 100	> 100	> 100	> 100	> 100	> 100	> 100	> 100	> 100	> 100	> 100	–	–	–	–	–	–	–	–
Cc1cc(O)c2c(c1O)C(=O)C13C(=C2O)C(=O)C2C(O)C1C1C(O)C3C(=O)C3=C(O)c4c(O)cc(C)c(O)c4C(=O)C321 (stereo unspecified)	0.112	–	0.168	0.182	–	0.406	–	0.879	0.458	0.364	3.46	0.841	–	–	–	–	–	–	–
NCCCn1c2ccccc2c2c3c(c4c(c21)CCC(O)CC4)C(=O)NC3=O (stereo unspecified)	–	14.1	28.4	23	20.9	4.99	14.4	13.6	4.43	16.5	29.7	–	–	–	–	–	–	–	–
CC(=O)[C@@H]1CCC=C2CC[C@]3(C)[C@@H](CC[C@@H]4[C@@]5(C)CCCNC(C)(C)[C@@H]5CC[C@]43C)[C@H]21	2.79	3.33	–	2.84	4.39	2.58	3.35	–	–	–	4.29	–	1.38	1.77	1.44	1.87	1.2	1.81	2.19
COc1cc2c(c(OC)c1OC)-c1ccc(SC)c(=O)cc1[C@@H](OC(C)=O)CC2	> 100	> 100	> 100	> 100	> 100	–	> 100	–	25.1	–	> 100	> 82.1	–	–	–	–	–	–	–
O=C(N=C1SCCN1C(=O)C(C(F)(F)F)C(F)(F)F)C(C(F)(F)F)C(F)(F)F	> 100	–	> 100	> 100	–	> 100	> 100	> 100	–	> 100	> 100	–	–	–	–	–	–	–	–
C=C1C[C@@H](O)C[C@@]2(C)C[C@@H]3OC(=O)C(=C)[C@@H]3C[C@H]12	3.02	–	11.9	18.2	–	10.8	–	37.7	14.4	11.7	15.9	> 35.5	–	–	–	–	–	–	–
O=[N+]([O-])/C(C(Cl)=C(Cl)Cl)=C1\NCCO1	> 100	> 100	> 100	> 100	90.5	> 100	> 100	> 100	> 100	> 100	> 100	–	–	–	–	–	–	–	–
CC1(C)N=C(C(N)=O)c2ncn(CCO)c2N1	> 100	> 100	> 100	> 100	> 100	> 100	> 100	> 100	> 100	> 100	> 100	–	–	–	–	–	–	–	–
C=C1C(=O)OC2(C)C3CCC(C3)C12 (stereo unspecified)	48.4	–	> 100	> 100	–	> 100	–	> 100	> 100	> 100	–	> 100	–	–	–	–	–	–	–
CCN(CC)CCCOC(=O)/C=C/c1c(C)[nH]c(=O)[nH]c1=O	> 625	–	> 625	> 625	–	> 394	–	> 625	> 625	> 625	> 625	> 625	–	–	–	–	–	–	–
O=c1/c(=C\c2ccccc2)sc2n1C(c1ccccc1)C1(O)CCCCC1N=2 (stereo unspecified)	–	–	> 100	> 100	–	> 100	> 100	> 100	> 100	> 100	> 100	> 100	–	–	–	–	–	–	–
